Laboratory results from patent publication US20210115040A1, “OGA INHIBITOR COMPOUNDS” (Janssen Pharmaceutica NV, priority 2018, published 2021).

What follows are molecules tested against T1, recombinant human Meningioma Expressed Antigen 5 (MGEA5), also referred to as O-GlcNAcase (OGA) (Homo sapiens, UniProt O60502) (assay: OGA biochemical assay (inhibition of FM-GlcNAc hydrolysis, fluorescence)). Conditions: FM-GlcNAc substrate, 6 h at room temperature.
T1 construct: Full length OGA enzyme was purchased at OriGene (cat #TP322411); purchased OriGene TP322411
T1 sequence (O60502 1-916): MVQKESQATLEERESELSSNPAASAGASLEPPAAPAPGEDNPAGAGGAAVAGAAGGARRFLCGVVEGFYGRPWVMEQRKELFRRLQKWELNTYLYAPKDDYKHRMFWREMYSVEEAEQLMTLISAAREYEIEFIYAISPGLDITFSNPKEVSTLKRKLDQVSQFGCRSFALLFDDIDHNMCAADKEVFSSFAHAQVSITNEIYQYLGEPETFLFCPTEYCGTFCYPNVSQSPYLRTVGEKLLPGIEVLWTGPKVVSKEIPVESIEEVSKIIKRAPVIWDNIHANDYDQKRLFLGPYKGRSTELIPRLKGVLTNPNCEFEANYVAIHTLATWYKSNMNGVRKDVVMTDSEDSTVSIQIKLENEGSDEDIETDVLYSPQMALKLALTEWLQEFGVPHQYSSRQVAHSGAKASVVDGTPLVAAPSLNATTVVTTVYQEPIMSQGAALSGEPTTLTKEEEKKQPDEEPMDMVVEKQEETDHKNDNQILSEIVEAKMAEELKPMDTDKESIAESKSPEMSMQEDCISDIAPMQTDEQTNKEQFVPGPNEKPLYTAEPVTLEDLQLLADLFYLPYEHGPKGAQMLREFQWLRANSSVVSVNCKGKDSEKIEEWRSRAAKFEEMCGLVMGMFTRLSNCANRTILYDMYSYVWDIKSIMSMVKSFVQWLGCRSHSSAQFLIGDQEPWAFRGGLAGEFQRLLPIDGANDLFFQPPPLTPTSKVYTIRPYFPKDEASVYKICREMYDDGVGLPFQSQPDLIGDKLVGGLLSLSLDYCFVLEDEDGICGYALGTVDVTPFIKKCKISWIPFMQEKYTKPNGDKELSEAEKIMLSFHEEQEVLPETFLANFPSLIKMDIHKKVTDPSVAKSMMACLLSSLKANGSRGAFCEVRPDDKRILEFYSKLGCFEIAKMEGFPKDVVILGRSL
Method in brief: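 Full-length OGA (2 nM) pre-incubated 60 min at room temperature with compound, then FM-GlcNAc (100 uM final) hydrolysed 6 h at room temperature in 200 mM citrate/phosphate pH 7.2 with 0.005% Tween-20. Stopped with carbonate pH 11.0; fluorescein read at ex 485/em 538 nm. IC50 and Hill coefficient from curve fit between no-inhibitor and saturating-standard controls.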

Enzymatic hOGA; pIC50	SMILES
8.2	Cc1cc(C2CCCN(C(C)c3cc4nc(C)sc4cc3F)C2)cc(C)n1 (stereo not drawn) [Compound 90]

Same assay, conditions: FM-GlcNAc substrate, 6 h at room temperature, read-out: Enzymatic hOGA, pIC50 (converted)

SMILES	IC50
COc1cc(C[C@@H]2CCN(C(C)c3ccc4sc(C)nc4n3)C2)cc(C)n1 (single isomer, unassigned) [Compound 97]	6.31 µM
Cc1cc(CO[C@H]2CCCN(C(C)c3cc4nc(C)sc4cc3F)C2)cc(C)n1 (single isomer, unassigned) [Compound 100]	1.26 µM
Cc1cc(CO[C@H]2CCCN(C(C)c3cc4nc(C)sc4cc3F)C2)cc(C)n1 (single isomer, unassigned) [Compound 101]	0.00398 µM
Cc1cc(NCC2CCCN(C(C)c3ccc4sc(C)nc4n3)C2)cc(C)n1 (single isomer, unassigned) [Compound 106]	0.00501 µM
Cc1cc(C[C@H]2CCCN(Cc3ccc4[nH]c(C)nc4n3)C2)cc(C)n1 [Compound 9]	0.2 µM
Cc1cc(C[C@H]2CCCN(Cc3cnc4nc(C)oc4c3)C2)cc(C)n1 [Compound 37]	7.94 µM
Cc1cc(OC2CCCN(C(C)c3ccc4sc(C)nc4n3)C2)cc(C)n1 (stereo not drawn) [Compound 40]	0.0126 µM
Cc1cc(C[C@@H]2CCN([C@H](C)c3cc4nc(C)sc4cc3F)C2)cc(C)n1 [Compound 59]	0.2 µM
Cc1cc(C[C@@H]2CCN([C@@H](C)c3cc4nc(C)sc4cc3F)C2)cc(C)n1 [Compound 60]	0.002 µM
Cc1cc(C[C@H]2CCN(C(C)c3cnc4nc(C)oc4c3)C2)cc(C)n1 (stereo partly drawn) [Compound 63]	0.1 µM

Next, values leading:

IC50	SMILES
0.00794 µM	Cc1cc(C[C@H]2CCCN([C@H](C)c3ccc4oc(C)nc4n3)C2)cc(C(F)(F)F)n1 [Compound 24a]
0.00398 µM	Cc1cc(C[C@H]2CCCN([C@H](C)c3ccc4oc(C)nc4n3)C2)cc(OC(F)(F)F)n1 [Compound 25a]
2 µM	Cc1cc(OC[C@H]2CCCN([C@@H](C)c3ccc4sc(C)nc4n3)C2)nc(C)n1 [Compound 49a]
0.00631 µM	Cc1cc(OC[C@H]2CCCN([C@H](C)c3ccc4sc(C)nc4n3)C2)nc(C)n1 [Compound 49b]

Same assay, conditions: FM-GlcNAc substrate, maximal effect

Enzymatic Emax (%)	SMILES
98%	Cc1cc(CO[C@H]2CCCN(C(C)c3cc4nc(C)sc4cc3F)C2)cc(C)n1 (single isomer, unassigned) [Compound 101]
101%	Cc1cc(C2CCCN(C(C)c3cc4nc(C)sc4cc3F)C2)cc(C)n1 (stereo not drawn) [Compound 90]

Same assay, conditions: FM-GlcNAc substrate, maximal effect, read-out: Enzymatic Emax (%)

SMILES	Emax
COc1cc(C[C@@H]2CCN(C(C)c3ccc4sc(C)nc4n3)C2)cc(C)n1 (single isomer, unassigned) [Compound 97]	56%
Cc1cc(CO[C@H]2CCCN(C(C)c3cc4nc(C)sc4cc3F)C2)cc(C)n1 (single isomer, unassigned) [Compound 100]	92%
Cc1cc(NCC2CCCN(C(C)c3ccc4sc(C)nc4n3)C2)cc(C)n1 (single isomer, unassigned) [Compound 106]	99%
Cc1cc(C[C@H]2CCCN(Cc3ccc4[nH]c(C)nc4n3)C2)cc(C)n1 [Compound 9]	96%
Cc1cc(C[C@H]2CCCN(Cc3cnc4nc(C)oc4c3)C2)cc(C)n1 [Compound 37]	55%
Cc1cc(OC2CCCN(C(C)c3ccc4sc(C)nc4n3)C2)cc(C)n1 (stereo not drawn) [Compound 40]	99%
Cc1cc(C[C@@H]2CCN([C@H](C)c3cc4nc(C)sc4cc3F)C2)cc(C)n1 [Compound 59]	98%
Cc1cc(C[C@@H]2CCN([C@@H](C)c3cc4nc(C)sc4cc3F)C2)cc(C)n1 [Compound 60]	99%
Cc1cc(C[C@H]2CCN(C(C)c3cnc4nc(C)oc4c3)C2)cc(C)n1 (stereo partly drawn) [Compound 63]	103%

Next, values leading:

Emax	SMILES
99%	Cc1cc(C[C@H]2CCCN([C@H](C)c3ccc4oc(C)nc4n3)C2)cc(C(F)(F)F)n1 [Compound 24a]
101%	Cc1cc(C[C@H]2CCCN([C@H](C)c3ccc4oc(C)nc4n3)C2)cc(OC(F)(F)F)n1 [Compound 25a]
84%	Cc1cc(OC[C@H]2CCCN([C@@H](C)c3ccc4sc(C)nc4n3)C2)nc(C)n1 [Compound 49a]
99%	Cc1cc(OC[C@H]2CCCN([C@H](C)c3ccc4sc(C)nc4n3)C2)nc(C)n1 [Compound 49b]

These molecules were tested against T2, OGA (Homo sapiens, UniProt O60502) (assay: OGA cellular assay (ICC detection of O-GlcNAcylated proteins in HEK293 cells inducible for P301L mutant human Tau)). Conditions: HEK293, HEK293 cells inducible for P301L mutant human Tau, maximum = Thiamet G 200 uM.
T2 construct: HEK293 cells inducible for P301L mutant human Tau (isoform 2N4R) were established at Janssen; endogenous in cells; host or cells: HEK293 cells inducible for P301L mutant human Tau (2N4R)
T2 sequence (O60502 1-916): T1 sequence (O60502 1-916)
Assay type: cell-based
Experimental: HEK293 cells inducible for P301L mutant human Tau (isoform 2N4R) were established at Janssen. Thiamet-G was used for both plate validation (high control) and as reference compound (reference EC50 assay validation). OGA inhibition is evaluated through the immunocytochemical (ICC) detection of O-GlcNAcylated proteins by the use of a monoclonal antibody (CTD110.6; Cell Signaling, #9875) detecting 0-GlcNAcylated residues as previously described (Dorfmueller et al. 2010 Chemistry & biology, 17:1250). Inhibition of OGA will result in an increase of O-GlcNAcylated protein levels resulting in an increased signal in the experiment. Cell nuclei are stained with Hoechst to give a cell culture quality control and a rough estimate of immediate compounds toxicity, if any. ICC pictures are imaged with a Perkin Elmer Opera Phenix plate microscope and quantified with the provided software Perkin Elmer Harmony 4.1.
Cells were propagated in DMEM high Glucose (Sigma, #D5796) following standard procedures. 2 days before the cell assay cells are split, counted and seeded in Poly-D-Lysine (PDL) coated 96-wells (Greiner, #655946) plate at a cell density of 12,000 cells per cm^2 (4,000 cells per well) in 100 μl of Assay Medium (Low Glucose medium is used to reduce basal levels of GlcNAcylation) (Park et al. 2014 The Journal of biological chemistry 289:13519). At the day of compound test medium from assay plates was removed and replenished with 90 μl of fresh Assay Medium. 10 μl of compounds at a 10fold final concentration were added to the wells. Plates were centrifuged shortly before incubation in the cell incubator for 6 hours. DMSO concentration was set to 0.2%. Medium is discarded by applying vacuum. For staining of cells medium was removed and cells washed once with 100 μl D-PBS (Sigma, #D8537). From next step onwards unless other stated assay volume was always 50 μl and incubation was performed without agitation and at room temperature. Cells were fixed in 50 μl of a 4% paraformaldehyde (PFA, Alpha aesar, #043368) PBS solution for 15 minutes at room temperature. […] Before analysis samples were washed 2 times manually for 5 minutes in ICC base buffer.
Imaging is performed using Perkin Elmer Phenix Opera using a water 20× objective and recording 9 fields per well. Intensity readout at 488 nm is used as a measure of O-GlcNAcylation level of total proteins in wells. To assess potential toxicity of compounds nuclei were counted using the Hoechst staining. IC50-values are calculated using parametric non-linear regression model fitting. As a maximum inhibition Thiamet G at a 200 uM concentration is present on each plate. In addition, a concentration response of Thiamet G is calculated on each plate.

SMILES	Emax
COc1cc(C[C@@H]2CCN(C(C)c3ccc4sc(C)nc4n3)C2)cc(C)n1 (single isomer, unassigned) [Compound 97]	-2%
Cc1cc(NCC2CCCN(C(C)c3ccc4sc(C)nc4n3)C2)cc(C)n1 (single isomer, unassigned) [Compound 106]	92%
Cc1cc(C[C@H]2CCCN(Cc3ccc4[nH]c(C)nc4n3)C2)cc(C)n1 [Compound 9]	59%
Cc1cc(C[C@H]2CCCN(Cc3cnc4nc(C)oc4c3)C2)cc(C)n1 [Compound 37]	2%
Cc1cc(OC2CCCN(C(C)c3ccc4sc(C)nc4n3)C2)cc(C)n1 (stereo not drawn) [Compound 40]	49%
Cc1cc(C[C@@H]2CCN([C@H](C)c3cc4nc(C)sc4cc3F)C2)cc(C)n1 [Compound 59]	11%
Cc1cc(C[C@@H]2CCN([C@@H](C)c3cc4nc(C)sc4cc3F)C2)cc(C)n1 [Compound 60]	66%
Cc1cc(C[C@H]2CCN(C(C)c3cnc4nc(C)oc4c3)C2)cc(C)n1 (stereo partly drawn) [Compound 63]	77%

Next, values leading:

Emax	SMILES
81%	Cc1cc(C[C@H]2CCCN([C@H](C)c3ccc4oc(C)nc4n3)C2)cc(C(F)(F)F)n1 [Compound 24a]
85%	Cc1cc(C[C@H]2CCCN([C@H](C)c3ccc4oc(C)nc4n3)C2)cc(OC(F)(F)F)n1 [Compound 25a]
-2%	Cc1cc(OC[C@H]2CCCN([C@@H](C)c3ccc4sc(C)nc4n3)C2)nc(C)n1 [Compound 49a]
70%	Cc1cc(OC[C@H]2CCCN([C@H](C)c3ccc4sc(C)nc4n3)C2)nc(C)n1 [Compound 49b]

Same assay, conditions: HEK293 cells inducible for P301L mutant human Tau, 6 hours incubation; read-out: Cellular hOGA; pEC50 (converted)

SMILES	EC50
COc1cc(C[C@@H]2CCN(C(C)c3ccc4sc(C)nc4n3)C2)cc(C)n1 (single isomer, unassigned) [Compound 97]	> 1 µM
Cc1cc(CO[C@H]2CCCN(C(C)c3cc4nc(C)sc4cc3F)C2)cc(C)n1 (single isomer, unassigned) [Compound 100]	> 1 µM
Cc1cc(CO[C@H]2CCCN(C(C)c3cc4nc(C)sc4cc3F)C2)cc(C)n1 (single isomer, unassigned) [Compound 101]	0.0501 µM
Cc1cc(NCC2CCCN(C(C)c3ccc4sc(C)nc4n3)C2)cc(C)n1 (single isomer, unassigned) [Compound 106]	0.00631 µM
Cc1cc(C[C@H]2CCCN(Cc3ccc4[nH]c(C)nc4n3)C2)cc(C)n1 [Compound 9]	0.631 µM
Cc1cc(C[C@H]2CCCN(Cc3cnc4nc(C)oc4c3)C2)cc(C)n1 [Compound 37]	> 1 µM
Cc1cc(OC2CCCN(C(C)c3ccc4sc(C)nc4n3)C2)cc(C)n1 (stereo not drawn) [Compound 40]	0.794 µM
Cc1cc(C[C@@H]2CCN([C@H](C)c3cc4nc(C)sc4cc3F)C2)cc(C)n1 [Compound 59]	> 1 µM
Cc1cc(C[C@@H]2CCN([C@@H](C)c3cc4nc(C)sc4cc3F)C2)cc(C)n1 [Compound 60]	0.0631 µM
Cc1cc(C[C@H]2CCN(C(C)c3cnc4nc(C)oc4c3)C2)cc(C)n1 (stereo partly drawn) [Compound 63]	0.158 µM
Cc1cc(C2CCCN(C(C)c3cc4nc(C)sc4cc3F)C2)cc(C)n1 (stereo not drawn) [Compound 90]	0.0316 µM

The remaining lines, values ahead:

EC50	SMILES
0.0398 µM	Cc1cc(C[C@H]2CCCN([C@H](C)c3ccc4oc(C)nc4n3)C2)cc(C(F)(F)F)n1 [Compound 24a]
0.0501 µM	Cc1cc(C[C@H]2CCCN([C@H](C)c3ccc4oc(C)nc4n3)C2)cc(OC(F)(F)F)n1 [Compound 25a]
> 1 µM	Cc1cc(OC[C@H]2CCCN([C@@H](C)c3ccc4sc(C)nc4n3)C2)nc(C)n1 [Compound 49a]
0.0316 µM	Cc1cc(OC[C@H]2CCCN([C@H](C)c3ccc4sc(C)nc4n3)C2)nc(C)n1 [Compound 49b]

Same assay, conditions: HEK293 cells inducible for P301L mutant human Tau, maximum = Thiamet G 200 uM

Cellular Emax (%)	SMILES
−6%	Cc1cc(CO[C@H]2CCCN(C(C)c3cc4nc(C)sc4cc3F)C2)cc(C)n1 (single isomer, unassigned) [Compound 100]
73%	Cc1cc(CO[C@H]2CCCN(C(C)c3cc4nc(C)sc4cc3F)C2)cc(C)n1 (single isomer, unassigned) [Compound 101]
84%	Cc1cc(C2CCCN(C(C)c3cc4nc(C)sc4cc3F)C2)cc(C)n1 (stereo not drawn) [Compound 90]
